Molecular target: T1, Kv7.2 (Homo sapiens, UniProt O43526)
T1 construct: expressed in transfected cells
Test: Activation of Kv7.2 (in vitro assay, concentration response curve)
Type: cell-based
Conditions: for Emax: Kv7.2 activation max %; for EC50: activation of Kv7.2
Procedure, shortened: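 Agonist activity was measured in vitro across a range of compound concentrations and plotted as a sigmoidal concentration–response curve. EC50 is the concentration giving 50% of that compound's own maximal response (Emax).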

SMILES	Emax	EC50
O=C(NCc1ccnc(OC(F)F)c1)N[C@@H]1C[C@H]2CCC[C@H]2C1 [Example 190, 1-[[2-(difluoromethoxy)pyridin-4-yl]methyl]-3-[(2s,3aR,6aS)-1,2,3,3a,4,5,6,6a-octahydropentalen-2-yl]urea]	85%	30 nM
O=C(NCc1ccnc(OC(F)F)c1)NC12CC(C(F)(F)F)(C1)C2 [Example 178, 1-[[2-(difluoromethoxy)pyridin-4-yl]methyl]-3-[3-(trifluoromethyl)-1-bicyclo[1.1.1]pentanyl]urea]	62%	1860 nM
C[C@H](O)C(NC(=O)N[C@H]1C[C@H](C(F)(F)F)C1)c1ccnc(OC(F)F)c1 (stereo partly drawn) [Example 287, 1-[(2S)-1-[2-(difluoromethoxy)pyridin-4-yl]-2-hydroxypropyl]-3-[(1r,3r)-3-(trifluoromethyl)cyclobutyl]urea]	96%	740 nM
O=C(NCc1ccnc(OC(F)F)c1)NCC1CCC1 [Example 13, 1-(cyclobutylmethyl)-3-[[2-(difluoromethoxy)pyridin-4-yl]methyl]urea]	56%	330 nM

More lines, in order of falling EC50, values ahead:

Emax	EC50	SMILES
41%	7270 nM	O=C(NCc1ccnc(C(F)(F)F)c1)NC12CC(F)(C1)C2 [Example 153, 1-(3-fluoro-1-bicyclo[1.1.1]pentanyl)-3-[[2-(trifluoromethyl)pyridin-4-yl]methyl]urea]
46%	1040 nM	O=C(NCc1ccnc(OC(F)F)c1)NCC1CC(F)C1 (stereo not drawn) [Example 89, 1-[[2-(difluoromethoxy)pyridin-4-yl]methyl]-3-[(3-fluorocyclobutyl)methyl]urea]
40%	850 nM	O=C(NCc1ccnc(OC(F)F)c1)NC[C@H]1C[C@@H](C(F)(F)F)C1 [Example 87, 1-[[2-(difluoromethoxy)pyridin-4-yl]methyl]-3-[[3-(1r,3r)-(trifluoromethyl)cyclobutyl]methyl]urea]
71%	490 nM	O=C(NCc1ccnc(OC2CC(F)(F)C2)c1)N[C@H]1C[C@H](C(F)(F)F)C1 [Example 209, 1-[[2-(3,3-difluorocyclobutyl)oxypyridin-4-yl]methyl]-3-[(1r,3r)-3-(trifluoromethyl)cyclobutyl]urea]
72%	310 nM	O=C(NCc1ccnc(OCC(F)(F)F)c1)NC12CCC(F)(CC1)CC2 [Example 180, 1-(4-fluoro-1-bicyclo[2.2.2]octanyl)-3-[[2-(2,2,2-trifluoroethoxy)pyridin-4-yl]methyl]urea]
